Experiments:
[1] = biological target: T1, BRD4 bromo domain 2 [BRD4(2)] (Homo sapiens, UniProt O60885); assay: BRD4/acetylated peptide H4 binding assay (TR-FRET), BRD4 bromo domain 2; details: inhibition of BRD4(2)/Ac-H4 peptide interaction
T1 construct: N-terminally His6-tagged BRD4(2) (amino acids 357-445); made in house; host or cells: E. coli
From the text: (§1) Protein-Protein Interaction Assay: BRD4/Acetylated Peptide H4 Binding Assay
To assess the BRD4(2) binding strength of the substances described in this application, the ability thereof to inhibit the interaction between BRD4(2) and acetylated histone H4 in a dose-dependent manner was quantified.
(§2) For this purpose, a time-resolved fluorescence resonance energy transfer (TR-FRET) assay was used, which measures the binding between N-terminally His6-tagged BRD4(2) (amino acids 357-445) and a synthetic acetylated histone H4 (Ac-H4) peptide with sequence SGRGK(Ac)GGK(Ac)GLGK(Ac)GGAK(Ac)RHRKVLRDNGSGSK-biotin. The recombinant BRD4(2) protein produced in-house according to Filippakopoulos et al., Nature, 2010, 468:1119-1123 and Cell, 2012, 149:214-231, was expressed in E. coli and purified by means of (Ni-NTA) affinity and (Sephadex G-75) size exclusion chromatography. The Ac-H4 peptide can be purchased, for example, from Biosyntan (Berlin, Germany).
(§3) In the assay, typically 11 different concentrations of each substance (0.1 nM, 0.33 nM, 1.1 nM, 3.8 nM, 13 nM, 44 nM, 0.15 μM, 0.51 μM, 1.7 μM, 5.9 μM and 20 μM) were analysed as duplicates on the same microtitre plate. For this purpose, 100-fold concentrated solutions in DMSO were prepared by serial dilutions (1:3.4) of a 2 mM stock solution into a clear, 384-well microtitre plate (Greiner Bio-One, Frickenhausen, Germany). From this, 50 nl were transferred into a black test plate (Greiner Bio-One, Frickenhausen, Germany). The test was started by the addition of 2 μl of a 2.5-fold concentrated BRD4(2) solution (final concentration typically 100 nM in the 5 μl of reaction volume) in aqueous assay buffer [50 mM HEPES pH 7.5, 50 mM sodium chloride (NaCl); 50 mM potassium fluoride (KF); 0.25 mM CHAPS and 0.05% serum albumin (BSA)] to the substances in the test plate. This was followed by a 10-minute incubation step at 22° C. for the pre-equilibration of putative complexes between BRD4(2) and the substances. Subsequently, 3 μl of a 1.67-fold concentrated solution (in assay buffer) consisting of Ac-H4 peptide (83.5 nM) and TR-FRET detection reagents [83.5 nM anti-6His-XL665 (Cisbio Bioassays, Codolet, France) and 12.52 nM streptavidin-Eu), (Perkin Elmer, #W1024)] in assay buffer were added.
(§4) The mixture was then incubated in the dark at 22° C. for one hour and then at 4° C. for at least 3 hours and for no longer than overnight. The formation of BRD4(2)/Ac-H4 complexes was determined by the measurement of the resonance energy transfer from the streptavidin-Eu chelate to the anti-6His-XL665 antibody present in the reaction. For this purpose, the fluorescence emission was measured at 620 nm and 665 nm after excitation at 330-350 nm in a TR-FRET measuring instrument, for example a Rubystar or Pherastar (both from BMG Lab Technologies, Offenburg, Germany) or a Viewlux (Perkin-Elmer). The ratio of the emissions at 665 nm and at 622 nm was taken as an indicator of the amount of BRD4(2)/Ac-H4 complexes formed.
(§5) The data (ratios) obtained were normalized, with 0% inhibition corresponding to the mean from the measurements for a set of controls (typically 32 data points) in which all the reagents were present. In these, in place of test substances, 50 nl of DMSO (100%) were used. Inhibition of 100% corresponded to the mean from the measurements for a set of controls (typically 32 data points) in which all the reagents except BRD4(2) were present. The IC50 was determined by regression analysis based on a 4-parameter equation (minimum, maximum, IC50, Hill; Y=max+(min−max)/(1+(X/IC50)Hill)).

[2] = biological target: T2, BRD4 bromo domain 1 [BRD4(1)] (Homo sapiens, UniProt O60885); assay: BRD4/acetylated peptide H4 binding assay (TR-FRET), BRD4 bromo domain 1; details: inhibition of BRD4(1)/Ac-H4 peptide interaction
T2 construct: N-terminally His6-tagged BRD4(1) (amino acids 67-152); made in house; host or cells: E. coli
From the text: as §1
To assess the BRD4(1) binding strength of the substances described in this application, the ability thereof to inhibit the interaction between BRD4(1) and acetylated histone H4 in a dose-dependent manner was quantified.
as §2, with “BRD4(1)” for “BRD4(2)”, “67-152)” for “357-445)”, “GRGK(Ac)GGK(Ac)GLGK(Ac)GGAK(Ac)RHGSGSK-biotin.” for “SGRGK(Ac)GGK(Ac)GLGK(Ac)GGAK(Ac)RHRKVLRDNGSGSK-biotin.”
as §3, with “concentrated BRD4(1)” for “concentrated BRD4(2)”, “typically 10” for “typically 100”, “chloride (NaCl),” for “chloride (NaCl); 50 mM potassium fluoride (KF);”, “between BRD4(1)” for “between BRD4(2)”, “substances.” for “substances. Subsequently, 3 μl of a 1.67-fold concentrated solution (in assay buffer) consisting of Ac-H4 peptide (83.5 nM) and TR-FRET detection reagents [83.5 nM anti-6His-XL665 (Cisbio Bioassays, Codolet, France) and 12.52 nM streptavidin-Eu), (Perkin Elmer, #W1024)] in assay buffer were added.”
as §4, with “BRD4(1)/Ac-H4” for “BRD4(2)/Ac-H4”, “cryptate” for “chelate”
as §5, with “BRD4(1)” for “BRD4(2)”

SMILES: COc1ccc(C(=O)N[C@H]2CC[C@@H](N3CCN(C4CC4)CC3)CC2)cc1Nc1ccc2c(n1)N(C1CCOCC1)[C@H](C)C(=O)N2C [Example 90, N-[cis-4-(4-cyclopropylpiperazin-1-yl)cyclohexyl]-3-{[(3R)-1,3-dimethyl-2-oxo-4-(tetrahydro-2H-pyran-4-yl)-1,2,3,4-tetrahydropyrido[2,3-b]pyrazin-6-yl]amino}-4-methoxybenzamide]
- IC50 [1]: 332 nM
- IC50 [2]: 430 nM

SMILES: COCCN1c2nc(Nc3cccc(C(=O)N[C@H]4CC[C@H](N5CCN(CC6CC6)CC5)CC4)c3)ccc2N(C)C(=O)[C@H]1C [Example 101, N-{trans-4-[4-(cyclopropylmethyl)piperazin-1-yl]cyclohexyl}-3-{[(3R)-4-(2-methoxyethyl)-1,3-dimethyl-2-oxo-1,2,3,4-tetrahydropyrido-[2,3-b]pyrazin-6-yl]amino}benzamide]
- IC50 [1]: 195 nM
- IC50 [2]: 617 nM

SMILES: C[C@@H]1C(=O)N(C)c2ccc(N(C)c3cccc(S(=O)(=O)N(C)C)c3)cc2N1C1CCN(C(=O)OC(C)(C)C)CC1 [Example 70, tert-butyl 4-[(2R)-7-{[3-(dimethylsulphamoyl)-phenyl](methyl)amino}-2,4-dimethyl-3-oxo-3,4-dihydroquinoxalin-1(2H)-yl]piperidine-1-carboxylate]
- IC50 [1]: 384 nM
- IC50 [2]: 749 nM

SMILES: COc1c(Nc2ccc3c(n2)N(C2CCOCC2)[C@H](C)C(=O)N3C)cccc1C(=O)N[C@H]1CC[C@H](N2CCN(CC3CC3)CC2)CC1 [Example 91, N-{trans-4-[4-(cyclo-propylmethyl)piperazin-1-yl]cyclohexyl}-3-{[(3R)-1,3-dimethyl-2-oxo-4-(tetrahydro-2H-pyran-4-yl)-1,2,3,4-tetrahydropyrido[2,3-b]pyrazin-6-yl]amino}-2-methoxybenzamide]
- IC50 [1]: 325 nM
- IC50 [2]: 439 nM

SMILES: C[C@@H]1C(=O)N(C)c2ccc(Nc3cccc(C(=O)N4CCN(C)CC4)c3)nc2N1C1CCN(C(=O)OC(C)(C)C)CC1 [Example 78, tert-butyl 4-[(3R)-1,3-dimethyl-6-({3-[(4-methylpiperazin-1-yl)carbonyl]phenyl}-amino)-2-oxo-2,3-dihydropyrido[2,3-b]pyrazin-4(1H)-yl]piperidine-1-carboxylate]
- IC50 [1]: 157 nM
- IC50 [2]: 151 nM

SMILES: C[C@@H]1C(=O)N(C)c2ccc(Nc3cccc(C(=O)N[C@H]4CC[C@H](N5CCN(CC6CC6)CC5)CC4)c3)nc2N1C1CCCCC1 [Example 99, 3-{[(3R)-4-cyclohexyl-1,3-dimethyl-2-oxo-1,2,3,4-tetrahydropyrido[2,3-b]pyrazin-6-yl]amino}-N-{trans-4-[4-(cyclopropyl-methyl)piperazin-1-yl]cyclohexyl}benzamide]
- IC50 [1]: 274 nM
- IC50 [2]: 551 nM

SMILES: COc1ccc(C(=O)N2CCN(C)CC2)cc1Nc1ccc2c(n1)N(C1CCOCC1)[C@H](C)C(=O)N2C [Example 17, (3R)-6-({2-Methoxy-5-[(4-methylpiperazin-1-yl)carbonyl]phenyl}amino)-1,3-dimethyl-4-(tetrahydro-2H-pyran-4-yl)-3,4-dihydropyrido[2,3-b]pyrazin-2(1H)-one]
- IC50 [1]: 60 nM
- IC50 [2]: 129 nM

SMILES: COCCN1c2nc(Nc3cccc(C(=O)N4CCN(C)CC4)c3)ccc2N(C)C(=O)[C@@H]1C (stereo in doubt) [Example 118, (3S)-4-(2-methoxyethyl)-1,3-dimethyl-6-({3-[(4-methylpiperazin-1-yl)carbonyl]phenyl}amino)-3,4-dihydropyrido[2,3-b]pyrazin-2(1H)-one]
- IC50 [1]: > 40000 nM
- IC50 [2]: 18200 nM

SMILES: C[C@@H]1C(=O)N(C)c2ccc(Nc3cccc(C(=O)NC4CCN(C)CC4)c3)nc2N1C1CCCCC1 [Example 95, 3-{[(3R)-4-cyclohexyl-1,3-dimethyl-2-oxo-1,2,3,4-tetrahydropyrido[2,3-b]pyrazin-6-yl]amino}-N-(1-methylpiperidin-4-yl)benzamide]
- IC50 [1]: 277 nM
- IC50 [2]: 475 nM

SMILES: COc1ccc(C(=O)NCCN(C)C)cc1Nc1ccc2c(n1)N(C1CCOCC1)[C@H](C)C(=O)N2C [Example 19, N-2-(Dimethylamino)ethyl-3-{[(3R)-1,3-dimethyl-2-oxo-4-(tetrahydro-2H-pyran-4-yl)-1,2,3,4-tetrahydropyrido[2,3-b]pyrazin-6-yl]amino}-4-methoxybenzamide]
- IC50 [1]: 132 nM
- IC50 [2]: 234 nM

SMILES: C[C@@H]1C(=O)N(C)c2ccc(Nc3cccc(C(=O)NCCN4CCN(C)CC4)c3)nc2N1C1CCCCC1 [Example 84, 3-{[(3R)-4-cyclohexyl-1,3-dimethyl-2-oxo-1,2,3,4-tetrahydropyrido[2,3-b]pyrazin-6-yl]amino}-N-[2-(4-methlpiperazin-1-yl)ethyl]benzamide]
- IC50 [1]: 155 nM
- IC50 [2]: 268 nM

SMILES: COCCN1c2nc(Nc3cccc(C(=O)N4CCN(C)CC4)c3)ccc2N(C)C(=O)[C@H]1C (stereo in doubt) [Example 117, (3R)-4-(2-methoxyethyl)-1,3-dimethyl-6-({3-[(4-methylpiperazin-1-yl)carbonyl]phenyl}amino)-3,4-dihydropyrido[2,3-b]pyrazin-2(1H)-one]
- IC50 [1]: 434 nM
- IC50 [2]: 489 nM

— patent US20160176867A1, “MODIFIED BET-PROTEIN-INHIBITING DIHYDROQUINOXALINONES AND DIHYDROPYRIDOPYRAZINONES” (BAYER PHARMA AKTIENGESELLSCHAFT, priority 2013, published 2016)
